Measured values from patent publication US9113629B2, “4-amino-6-(4-substituted-phenyl)-picolinates and 6-amino-2-(4-substituted-phenyl)-pyrimidine-4-carboxylates and their use as herbicides” (DOW AGROSCIENCES LLC, priority 2013, dated 2015).
Like-named read-outs stand apart in the source and are kept apart here.

How the values were obtained:
[1] = tested on: Key Grass and Sedge Weeds as well as Grass Crops; assay: Post-emergent Test II herbicidal activity (Table 6); format: in vivo; details: post-emergence, 336 h; for pest or weed control at 70 g/ha: 70 g ai/ha; for pest or weed control at 140 g/ha: 140 g ai/ha
Summary of the method: (§1)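 Plants grown in Metro-Mix 360 (pH 6.0–6.8) in a greenhouse (~15 h photoperiod, 23–29 °C day) to first or second true leaf stage, then sprayed with compound in acetone/DMSO/aqueous crop-oil-surfactant carrier at 187 L/ha by track sprayer. Injury visually scored 0–100% versus untreated plants after 14 d.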

[2] = tested on: Key Broadleaf Weed and Crop Species; assay: Post-emergent Test II herbicidal activity (Table 5); format: in vivo; details: post-emergence, 336 h, 14 days after application; for pest or weed control at 70 g/ha: application rate 70 g ai/ha; for pest or weed control at 140 g/ha: application rate 140 g ai/ha
Summary of the method: as §1

[3] = CYPES: yellow nutsedge (Cyperus esculentus), read-out: Visual Growth Reduction (%) 14 Days After Application, CYPES
[4] = DIGSA: crabgrass (Digitaria sanguinalis), read-out: Visual Growth Reduction (%) 14 Days After Application, DIGSA
[5] = ECHCG: barnyardgrass (Echinochloa crus-galli), read-out: Visual Growth Reduction (%) 14 Days After Application, ECHCG
[6] = ORYSA: rice (Oryza sativa), crop, read-out: Visual Growth Reduction (%) 14 Days After Application, ORYSA
[7] = SETFA: giant foxtail (Setaria faberi), read-out: Visual Growth Reduction (%) 14 Days After Application, SETFA
[8] = SORVU: grain sorghum (Sorghum vulgare), read-out: Visual Growth Reduction (%) 14 Days After Application, SORVU
[9] = TRZSS (wheat, Triticum aestivum), crop, read-out: Visual Growth Reduction (%) 14 Days After Application, TRZSS
[10] = ZEAMX: maize, corn (Zea mays), crop, read-out: Visual Growth Reduction (%) 14 Days After Application, ZEAMX
[11] = ABUTH: velvetleaf (Abutilon theophrasti), read-out: Visual Growth Reduction (%) 14 Days After Application, ABUTH
[12] = AMARE: redroot pigweed (Amaranthus retroflexus), read-out: Visual Growth Reduction (%) 14 Days After Application, AMARE
[13] = BRSNN: oilseed-rape, canola (Brassica napus), read-out: Visual Growth Reduction (%) 14 Days After Application, BRSNN
[14] = CHEAL: lambsquarters (Chenopodium album), read-out: Visual Growth Reduction (%) 14 Days After Application, CHEAL
[15] = EPHHL: wild poinsettia (Euphorbia heterophylla), read-out: Visual Growth Reduction (%) 14 Days After Application, EPHHL
[16] = HELAN: sunflower (Helianthus annuus), read-out: Visual Growth Reduction (%) 14 Days After Application, HELAN
[17] = VIOTR: wild pansy (Viola tricolor), read-out: Visual Growth Reduction (%) 14 Days After Application, VIOTR

Question: For `COC(=O)c1nc(-c2ccc(I)cc2)nc(N)c1OC` [Compound 18], which pest or weed control at 70 g/ha [1, 3] is on record?
Answer: The pest or weed control at 70 g/ha was 95 to 100%.

Question: What about the pest or weed control at 140 g/ha [1, 3] of the same compound?
Answer: Its pest or weed control at 140 g/ha is 95 to 100%.

Question: What about the pest or weed control at 70 g/ha [1, 4] of the same compound?
Answer: The pest or weed control at 70 g/ha was 0 to 29%.

Question: And the pest or weed control at 140 g/ha [1, 4]?
Answer: The pest or weed control at 140 g/ha was 30 to 44%.

Question: And the pest or weed control at 70 g/ha [1, 5]?
Answer: The pest or weed control at 70 g/ha was 0 to 29%.

Question: And the pest or weed control at 140 g/ha [1, 5]?
Answer: The pest or weed control at 140 g/ha was 45 to 59%.

Question: And the pest or weed control at 70 g/ha [1, 6]?
Answer: Its pest or weed control at 70 g/ha is 0 to 29%.

Question: And the pest or weed control at 140 g/ha [1, 6]?
Answer: The pest or weed control at 140 g/ha was 0 to 29%.

Question: And the pest or weed control at 70 g/ha [1, 7]?
Answer: Its pest or weed control at 70 g/ha is 0 to 29%.

Question: And the pest or weed control at 140 g/ha [1, 7]?
Answer: The pest or weed control at 140 g/ha was 0 to 29%.

Question: What about the pest or weed control at 70 g/ha [1, 8] of the same compound?
Answer: The pest or weed control at 70 g/ha was 30 to 44%.

Question: What about the pest or weed control at 140 g/ha [1, 8] of the same compound?
Answer: The pest or weed control at 140 g/ha was 0 to 29%.

Question: And the pest or weed control at 70 g/ha [1, 9]?
Answer: The pest or weed control at 70 g/ha was 30 to 44%.

Question: And the pest or weed control at 140 g/ha [1, 9]?
Answer: Its pest or weed control at 140 g/ha is 30 to 44%.

Question: What about the pest or weed control at 70 g/ha [1, 10] of the same compound?
Answer: Its pest or weed control at 70 g/ha is 95 to 100%.

Question: And the pest or weed control at 140 g/ha [1, 10]?
Answer: The pest or weed control at 140 g/ha was 95 to 100%.

Question: What about the pest or weed control at 70 g/ha [2, 11] of the same compound?
Answer: Its pest or weed control at 70 g/ha is 75 to 84%.

Question: What about the pest or weed control at 140 g/ha [2, 11] of the same compound?
Answer: The pest or weed control at 140 g/ha was 75 to 84%.

Question: And the pest or weed control at 70 g/ha [2, 12]?
Answer: The pest or weed control at 70 g/ha was 0 to 29%.

Question: And the pest or weed control at 140 g/ha [2, 12]?
Answer: The pest or weed control at 140 g/ha was 0 to 29%.

Question: And the pest or weed control at 70 g/ha [2, 13]?
Answer: The pest or weed control at 70 g/ha was 75 to 84%.

Question: What about the pest or weed control at 140 g/ha [2, 13] of the same compound?
Answer: Its pest or weed control at 140 g/ha is 95 to 100%.

Question: What about the pest or weed control at 70 g/ha [2, 14] of the same compound?
Answer: The pest or weed control at 70 g/ha was 85 to 94%.

Question: What about the pest or weed control at 140 g/ha [2, 14] of the same compound?
Answer: The pest or weed control at 140 g/ha was 95 to 100%.

Question: And the pest or weed control at 70 g/ha [2, 15]?
Answer: The pest or weed control at 70 g/ha was 95 to 100%.

Question: And the pest or weed control at 140 g/ha [2, 15]?
Answer: The pest or weed control at 140 g/ha was 95 to 100%.

Question: And the pest or weed control at 70 g/ha [2, 16]?
Answer: The pest or weed control at 70 g/ha was 95 to 100%.

Question: What about the pest or weed control at 140 g/ha [2, 16] of the same compound?
Answer: The pest or weed control at 140 g/ha was 95 to 100%.

Question: And the pest or weed control at 70 g/ha [2, 17]?
Answer: Its pest or weed control at 70 g/ha is 0 to 29%.

Question: And the pest or weed control at 140 g/ha [2, 17]?
Answer: The pest or weed control at 140 g/ha was 45 to 59%.
